From patent US20040265877A1, “Methods for detecting presence of cellular constituents” (Marantech Holding, LLC, priority 2003, published 2004)

Experiments:
HeLa cells = test: Binding/staining of HeLa cervical carcinoma cells; type: cell-based, human
Experimental: (§1) This example is directed to a reagent kit to determine the presence of cancer cells in cervical specimens (i.e., Pap (Papanicolaou test) smears).
Next, HeLa cells were mixed with epithelial (cheek) cells to create a simulated Pap smear.
(§2) TST solution (soluble TST) was prepared by adding 5 mg of TST to 1 ml of dd H2O. Inadvertent “grounding” of the TST was avoided. The solution was mixed gently and thoroughly by pipetting up and down. Formation of air bubbles and excessive agitation were avoided. The solution was centrifuged for 15 seconds at 1,000 rpm to settle excess TST. Soluble TST was added to a sample slide (picking up and depositing undissolved TST was avoided). The slide was incubated at room temperature for 10 minutes, followed by rinsing by either dipping the slide five times in a beaker of distilled water, or using the dual pipette method to remove excess TST. Dual pipette method: Using two pipettes, water was slowly added to the slide at one corner while the solution was simultaneously drawn up into the other pipette from a distal corner of the sample. Without intending to be bound by theory, the idea was to create somewhat of a flow across the sample, to gently wash it. The sample was quickly and gently blotted once or twice with a cloth wipe.
The enhancement solution was then prepared. One drop each of the 2-part enhancer was added to a microfuge tube. The mixture was vortexed for 40 seconds, and then immediately added it to the sample (an optional very brief centrifuge step at low speed in order to settle the liquid at the bottom of the tube was performed prior to addition to the sample). The sample was incubated at room temperature for 20-30 minutes. Optionally, the progress of the reaction under was observed using a light microscope. The slide was rinsed by either dipping the slide 5 times into a beaker of distilled water, or by the dual pipette method described above. The sample was quickly and gently blotted once or twice with a cloth wipe, and the sample was allowed to dry. The results were observed either under a light microscope or with the naked eye.

athlete's foot = settings: single case, solution of 100 ppm of the composition, topical; cited from earlier work
[1] = tested on: Herpes virus infected cells; settings: Pap smear samples, FIG. 4
Experimental: as §2
The enhancement solution was then prepared. One drop each of the 2-part enhancer was added to a microfuge tube. The mixture was vortexed for 40 seconds, and then immediately added it to the sample (an optional very brief centrifuge step at low speed in order to settle the liquid at the bottom of the tube was performed prior to addition to the sample). […]

normal cells = tested on: normal cells
Experimental: as §1, §2
The enhancement solution was then prepared. One drop each of the 2-part enhancer was added to a microfuge tube. […]

wild type mouse liver = settings: after computer photography enhancement, 40x
Experimental: (§3) Frozen liver slices were obtained, and the two step process described below for non-aqueous testing was performed. The results were viewed with a microscope and computer enhanced. Frozen liver slices from a wild type mouse (non-cancerous) were compared with frozen liver slices from a transgenic mouse expressing tNOX on its liver cells.
(§4) TST solution was prepared by adding 5 mg of TST to 1 ml of dd H2O. Inadvertent “grounding” of the TST was avoided. The solution was mixed gently and thoroughly by pipetting up and down. Air bubbles and excessive agitation were avoided. The solution was centrifuged for 15 seconds at 1,000 rpm to settle excess TST.
(§5) Soluble TST was added to a sample section, while avoiding undissolved TST. The sample was incubated at room temperature for 10 minutes. Excess TST was removed by dipping the section several times in a beaker of distilled water. The sample was quickly and gently blotted once or twice with a cloth wipe.
(§6) The enhancement solution was prepared by placing one drop each of the two-part enhancer into a microfuge tube. The mixture was vortexed for 40 seconds, and immediately added to the sample. The solution was optionally centrifuged briefly at low speed in order to settle the liquid at the bottom of the tube prior to addition to the sample. The sample was incubated at room temperature for 20-30 minutes.

[2] = tested on: liver cells expressing tNOX; settings: after computer photography enhancement, 40x
Experimental: as §3, §4, §5, §6

CNOX [3] = biological target: CNOX (Homo sapiens, UniProt Q8TC92); settings: MCF-10A human mammary epithelia; elevated concentrations far above 1 PPM
Experimental: (§7) NADH oxidase (NOX) activity was determined (as the disappearance of it measured spectrophotometrically at 340 nm) in a reaction mixture (25 mM Tris-MES buffer at pH 7.2, KCN 1 mM) to inhibit low levels of mitochondrial oxidase activity, and 150 micromoles […] at 37° C. with stirring. Activity was measured with pairs of Hitachi U3210 Spectrophotometers. Assays were initiated by the addition of NOX and tetrasilver tetroxide (Ag4O4) for one minute and were repeated on the same sample every 1.5 minutes over a 45-minute period. A mM absorption coefficient of 6.2 was used to determine specific activity.
(§8) Protein disulfide-thiol interchange activity associated with tNOX was measured using the dipyridyldithio substrate dithiodipyridine (DTDP). The assay was performed in 50 mM Tris-MES buffer (pH 7.0) and was initiated by the addition of 0.5 micromoles DTDP in 5 microliters DMSO as a control. The reaction was monitored by tracking an increase in absorption at 340 nm using DTDP, specific activity being calculated using a mM absorption coefficient of 6.2. The spectrophotometric assays were performed simultaneously with the two spectrophotometers and DMSO controls.
(§9) The procedure was repeated with plasma protein derived from soybean seeds containing CNOX growth regulator.

CNOX [4] = settings: soybean seed plasma protein; elevated concentrations far above 1 PPM
Experimental: as §7, §8, §9

tumor cells (HeLa) = settings: FIG. 7
Excerpt: (§10) A non-spectrophotometric characterization technique, i.e., scanning electron microscopy (SEM) was used with the procedure set forth in Example VIII.

[5] = tested on: non-tumor cells (MCF-10A); settings: FIGS. 10A-10B
Excerpt: as §10

toenail fungus = settings: single case, 25% suspension of the composition, topical; cited from earlier work
[6] = single intravenous injection at about 40 ppm of human blood; no reported loss of liver function; cited from earlier work
tNOX [7] = settings: HeLa cells; concentration of one part per million (PPM)
Experimental: as §7, §8

tNOX [8] = biological target: tNOX (Homo sapiens, UniProt Q16206); settings: BT-20 mammary cancer cell line
Experimental: as §7, §8

[9] = tested on: gynecological yeast infection; settings: 10 ppm silver tetroxide and 40 ppm sodium persulfate; cited from earlier work

Sequence of tNOX (Homo sapiens, UniProt Q16206) (Q16206 whole entry): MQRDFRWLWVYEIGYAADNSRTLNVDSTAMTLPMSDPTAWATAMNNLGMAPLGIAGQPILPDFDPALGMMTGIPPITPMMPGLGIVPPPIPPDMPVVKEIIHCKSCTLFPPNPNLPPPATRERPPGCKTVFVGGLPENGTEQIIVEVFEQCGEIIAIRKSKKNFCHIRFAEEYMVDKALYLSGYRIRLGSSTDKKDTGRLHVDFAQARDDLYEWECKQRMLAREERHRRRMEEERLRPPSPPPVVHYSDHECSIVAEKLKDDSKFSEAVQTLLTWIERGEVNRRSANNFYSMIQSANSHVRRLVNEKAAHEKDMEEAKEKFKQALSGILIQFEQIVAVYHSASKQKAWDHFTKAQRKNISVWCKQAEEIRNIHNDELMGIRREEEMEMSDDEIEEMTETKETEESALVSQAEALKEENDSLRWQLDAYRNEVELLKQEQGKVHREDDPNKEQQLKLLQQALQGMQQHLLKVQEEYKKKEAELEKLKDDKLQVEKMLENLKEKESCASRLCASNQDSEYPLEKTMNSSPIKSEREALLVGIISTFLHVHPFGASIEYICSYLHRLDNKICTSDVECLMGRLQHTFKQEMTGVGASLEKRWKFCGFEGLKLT
Sequence of CNOX (Homo sapiens, UniProt Q8TC92) (Q8TC92 whole entry): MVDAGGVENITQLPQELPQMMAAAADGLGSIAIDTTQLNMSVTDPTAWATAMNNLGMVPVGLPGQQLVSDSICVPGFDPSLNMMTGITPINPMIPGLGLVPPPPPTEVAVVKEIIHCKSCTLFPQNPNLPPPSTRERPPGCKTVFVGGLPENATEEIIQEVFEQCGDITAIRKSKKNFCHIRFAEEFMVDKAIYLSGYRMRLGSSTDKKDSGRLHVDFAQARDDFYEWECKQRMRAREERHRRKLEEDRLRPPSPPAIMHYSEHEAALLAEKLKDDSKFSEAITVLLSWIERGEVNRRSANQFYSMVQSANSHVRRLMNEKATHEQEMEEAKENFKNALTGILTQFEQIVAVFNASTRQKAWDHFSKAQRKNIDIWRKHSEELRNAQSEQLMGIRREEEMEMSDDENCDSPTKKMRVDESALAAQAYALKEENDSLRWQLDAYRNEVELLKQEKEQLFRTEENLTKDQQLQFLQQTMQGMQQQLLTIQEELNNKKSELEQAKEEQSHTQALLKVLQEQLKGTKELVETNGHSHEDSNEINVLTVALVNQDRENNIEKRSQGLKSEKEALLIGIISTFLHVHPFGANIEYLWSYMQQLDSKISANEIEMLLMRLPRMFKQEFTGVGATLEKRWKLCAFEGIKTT

SMILES | staining of HeLa cells (HeLa cells; Fe3O4, FIGS. 9A-9C) | outcome of infection (athlete's foot) | binding to HeLa cultured cervical cell lines (HeLa cells) | nuclear staining (HeLa cells; Pap smear samples, FIG. 4) | distinguishing HeLa cells from epithelial (cheek) cells (HeLa cells; simulated Pap smear, HeLa mixed with cheek cells) | staining of infected cells [1] | binding to normal cells (normal cells) | nuclear staining (normal cells; Pap smear samples, FIG. 4) | staining of liver slices (wild type mouse liver) | staining of liver slices [2] | effect on CNOX (CNOX [3]) | effect on CNOX (CNOX [4]) | binding by SEM (tumor cells (HeLa)) | binding by SEM [5] | outcome of infection (toenail fungus) | liver adverse effect [6] | tNOX activity inhibition (tNOX [7]) | tNOX activity inhibition (tNOX [8]) | outcome of infection [9]
[O]=[Fe].[O]=[Fe][O][Fe]=[O] [Fe3O4, triiron tetroxide] | selectively stained | – | – | – | – | – | – | – | – | – | – | – | – | – | – | – | – | – | –
[Ag+].[Ag+].[Ag+].[Ag+].[O-2].[O-2].[O-2].[O-2] [tetrasilver tetroxide] | – | cure | bound covalently | black staining of nuclei | selective binding with and darkening of the cytoplasmic membrane of the HeLa cells | brown staining | without binding | no nuclear staining | did not | black nuclei and black borders | not affected at all | not affected at all | actual binding | non-binding | cure | hepatomegaly | inhibited completely | the same as in Example VIfI | curing
